Assay [1] has as its target T1, KRAS G12D (Homo sapiens, UniProt P01116, G12D).
T1 construct: Human His-tagged KRAS4B (1-169) G12D, G12V and G12C were custom synthesized; 6His (pET-28a(+)-TEV vector) (N); host or cells: E. coli BL21 star (DE3)
More on the design: method as in PMID 31332011. The conditions noted are these: ITC; cited from earlier work. (In ITC the heat of successive injections is recorded.)

Assay [2] concerns the target T2, GTP-KRAS G12D binding to GST-RBD (Homo sapiens, UniProt P01116, G12D).
T2 construct: Human His-tagged KRAS4B (1-169) G12D, G12V and G12C were custom synthesized; Addgene (GST-RBD) Addgene 13338; host or cells: E. coli BL21 star (DE3)
Description: KRAS G12D/GST-RBD pulldown assay. The format is biochemical. The note with it: for IC50: GST pulldown, Fig. 2 legend, read-out: IC50, inhibition of GTP-KRAS G12D/GST-RBD binding. The protocol:
For pulldown experiment, KRAS G12D was preloaded with either GTP or GDP as described above. GDP- or GTP-bound KRAS G12D proteins (250 nmol/L in 100 µL) were then incubated with indicated compound at 37°C for 15–16 minutes. GST-RBD (final 500 nmol/L) was then added and the mixture rocked at 37°C for 1 hour. Pierce glutathione agarose beads (Thermo Fisher Scientific; 20 µL) were then added and the mixture rocked at 37°C for 1 hour. The beads were then washed and the samples were processed for SDS-PAGE and Western blotting with respective antibodies to check the interaction between KRAS-GTP and GST-RBD proteins in presence or absence of the compounds. All the protein dilutions and washes were carried out in a buffer containing 25 mmol/L Tris (pH 7.5), 100 mmol/L NaCl, 5 mmol/L MgCl2, 1% NP-40, 5% glycerol, and 0.1 mmol/L DTT.
Expression and purification of GST-RBD: The Raf1-GST-RBD in pGEX-2T vector in DH5α cells was obtained from Addgene (Raf1 GST RBD 1-149, Plasmid catalog # 13338). GST-RBD plasmid DNA was transformed in BL21*(DE3) bacteria, streaked on agar plate to obtain the colonies . A distinct colony was picked and grown in ampicillin selection media to OD600 of around 0.6-0.8 before induction with IPTG (0.5 mM). Bacterial pellet was resuspended with lysis buffer (50 mM Tris HCL (pH 7.5), 150 mM NaCl, 0.5% Triton X-100, 5 mM MgCl2, 1 mM DTT, 10% Glycerol, 3 mM β-mercaptoethanol) and homogenized. The homogenized lysate was centrifuged at 14000 rpm at 4 °C for 40 min and the resulting supernatant was collected and filtered. The filtered supernatant was incubated with glutathione agarose (Pierce^TM) beads (Thermo Scientific, USA) at 4 °C for 60 min. After incubation, beads and lysate suspension was passed through Bio-Rad Econo column. The beads were washed using lysis buffer (as described above), and the GST-RBD eluted with elution buffer (50 mM Tris HCL (pH 7.5), 150 mM NaCl, 0.5% Triton X-100, 5 mM MgCl2, 1 mM DTT, 10% Glycerol, 10 mM Glutathione). Eluted GST-RBD protein fractions were buffer exchanged into 25 mM Tris (pH 7.5), 150 mM NaCl, 0.5 mM DTT and 5 mM MgCl2 buffer and stored at -80°C.
GTP and GDP nucleotide exchange for GST-RBD pull down: KRAS protein was exchanged with GTP (Sigma, USA) and GDP (Sigma, USA) using EDTA- loading procedure. The RAS proteins (235 µM final) were incubated with ~40-fold molar excess of EDTA (10 mM final), and ~45-fold molar excess of either GDP or GTP for 90 min at 37°C. After incubation, the sample was kept on ice for 10 minutes before incubating with ice-cooled 1M MgCl2 (65 mM final) for 20 minutes to stop the reaction. To remove excess unbound nucleotide, EDTA and magnesium, the proteins were re-buffered using PD10 columns (GE Life Sciences) into (25 mM Tris (pH 7.5), 150 mM NaCl, 0.5 mM DTT and 5 mM MgCl2) buffer and concentrated using Millipore spin ultrafiltration devices (10,000 Da cut off, 4,000 x g). The protein concentration was measured using Pierce Rapid GOLD BCA Protein Assay Kit (Thermo Scientific, USA) and aliquots were stored in -80°C.

Assay [3] concerns the target T1, KRAS G12D. Nature of the assay: Isothermal titration calorimetry, KRAS G12D. The format is binding. The conditions noted are these: ITC, KRAS G12D-NE (non-exchanged), 25°C. The protocol:
All isothermal titration calorimetry (ITC) experiments were carried out at 25°C on a MicroCal PEAQ ITC Automated (Malvern). […] The final ITC buffer in the syringe and the cell was 25 mmol/L Tris HCl (pH 8.0), 100 mmol/L NaCl, 0.1 mmol/L DTT, 5% glycerol, 1% NP40, 5 mmol/L MgCl2, and 5% DMSO. ITC titration experiments were carried out with 19 injections, 2 µL per injection, and 150 seconds spacing between each injection. Reference cell power was set to 5 µcal/second and stirring speed was 750 rpm. Data were analyzed using a one site binding model with the Malvern analysis software. All ITC experiments were performed at the biophysical facility at the Institute for Structural Biology, Drug Discovery and Development (ISB3D) at Virginia Commonwealth University (Richmond, VA) and the Massey Cancer Center.
Expression and purification of RAS proteins: Human His-tagged KRAS4B (1-169) G12D, G12V and G12C were custom synthesized and cloned into pET-28a(+)-TEV vector to generate pET-28a(+)-6His-KRAS (1-169) plasmids by GenScript USA Inc., Piscataway, NJ. The proteins were expressed and purified as described below. The full length biotinylated human KRAS4B G12D (His6-MBP-tev-Avi-Hs.KRAS4b G12D (2-188) protein was obtained from Dr Dominic Esposito and Dr. William Gillette from the NCI RAS Initiative at the Frederick National Laboratory. Avi-KRAS4b (2-188) G12D was cloned, expression and purified as described previously (1,2).
Expression and purification of KRAS proteins: BL21 star (DE3) competent cells were transformed with pET-28a(+)-6His-KRAS (1-169) plasmids from GenScript, and the resulting colonies were picked under kanamycin selection. The colonies were grown in LB broth and induced with 0.5mM IPTG for 4 hours when OD reached 0.6-0.8. Bacteria pellets were lysed in 25mM Tris HCL (pH7.8) buffer containing 300mM NaCl, 5mM MgCl2, 10mM Imidazole, 5% Glycerol and 3mM β-mercaptoethanol. Membrane filter-cleared lysate supernatants were incubated with HisPur Ni-NTA resin (Thermo scientific) in an oscillating platform at 4°C for 50 minutes. Econo disposable column (Bio-Rad) was used for washing the beads 3 times with 25mM Tris HCl (pH7.8), 300mM NaCl, 5mM MgCl2, 5% Glycerol buffer with 10mM, 20mM and 30mM Imidazole, respectively. Elution was carried with 25mM Tris HCl (pH7.8), 300mM NaCl, 5mM MgCl2, 5% Glycerol and 500mM Imidazole buffer. After confirming the eluted fraction purity on SDS-PAGE gel, proteins fractions were further purified using HiLoad 16/600 superdex 75 PG column in AKTA system. Protein was eluted in 25mM Tris HCL (pH7.8), 150mM NaCl, 5mM MgCl2 and 0.5mM DTT. KRAS protein aliquots were stored in -80°C.
GCP and NH-GDP nucleotide exchange for ITC: KRAS G12D protein in 25 mM Tris HCL (pH 8.0), 1 mM Calcium Chloride Dihydrate and 200 mM (NH4)2SO4 buffer was added to alkaline phosphatase beads (Sigma, USA) (2U per mg of KRAS) and to non-hydrolysable nucleotide analogs, GCP (β,γ-Methyleneguanosine 5′-triphosphate sodium salt, Sigma, USA) or GDP-NH (Guanosine 5′-[β-thio]diphosphate trilithium salt, Sigma, USA) in molar ratio of 10:1 (Nucleotide:KRAS). The reaction mixture was incubated with gentle rotation for 14-18 hrs at 4 °C. After incubation, the mixture was centrifuged at 1500 g, 4°C to remove the alkaline phosphatase beads. MgCl2 (20 mM) and an additional amount of GCP or NH-GDP in molar ratio of 5:1 (Nucleotide:KRAS) were added, and incubated at room temperature for 1 hr. After incubation, nucleotide exchanged protein was desalted and buffer exchanged at 4 °C using PD-10 column (Catalog # 17085101, GE Healthcare, USA), into a final buffer containing 25 mM Tris HCL (pH 7.5), 150 mM NaCl, 5 mM MgCl2 and 0.5 mM DTT. Buffer exchanged protein was concentrated using Amicon ultra centrifugal filter-10K cut off (Catalog # UFC501024, MilliporeSigma, USA). The protein concentration was measured using Pierce Rapid GOLD BCA Protein Assay Kit (Thermo Scientific, USA) and aliquots were stored in -80°C.

Like-named read-outs stand apart in the source and are kept apart here.

T2 sequence (P01116 1-169 isoform P01116-2 G12D): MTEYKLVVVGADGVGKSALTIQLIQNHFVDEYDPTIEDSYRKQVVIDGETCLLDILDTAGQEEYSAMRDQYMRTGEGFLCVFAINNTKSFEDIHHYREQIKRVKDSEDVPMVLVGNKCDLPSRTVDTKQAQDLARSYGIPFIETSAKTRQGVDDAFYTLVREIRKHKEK
T1 sequence (P01116 1-169 isoform P01116-2 G12D): as above

Usually Kd stands for the constant that tells how readily two partners part at equilibrium. As to `Cn1cnc(Cn2ccc3ccc(CNCc4[nH]c5ccccc5c4[C@H]4NC(=O)c5ccc(O)cc54)cc32)c1` [BI-2852], on KRAS G12D [1], the equilibrium dissociation constant (Kd) was 0.74 µM.

Turning to `COC(=O)C1C2C3(C)C(=O)C=CC2(OC3=O)C2CCC3(CI)CC12CC3=O` (centres unmarked) [IB-21G], the IC50 in assay [2] amounted to 0.36 µM. This compound gave a Kd at KRAS G12D [3] of 0.641 µM.

For `C=C1C[C@]23C[C@@]1(OC(C)=O)CC[C@H]2[C@@]12C=CC(=O)[C@@](C)(C(=O)O1)[C@H]2[C@@H]3C(=O)OC` [IB-21J], the “loss of potency relative to KRB-456” value in assay [2] (GST pulldown IC50) is reported as “about 10 fold”. For the same compound, in assay [2], the IC50 came to 2.02 µM. For the same compound, the Kd on KRAS G12D [3] turned out to be 4.81 µM.

For `C=C1C[C@]23C[C@@]1(O)CC[C@H]2[C@@]12C=CC(=O)[C@@](C)(C(=O)O1)[C@H]2[C@@H]3C(=O)NCc1ccccc1` [IIA-15D], in assay [2], the IC50 is 10.8 µM. At KRAS G12D [3], this compound gave a Kd of 11.6 µM.

The values above are taken from publication PMC10754035 (Cancer Research Communications, 2023).
